# Assay results reported in patent US12729377B2, “RNAi agents and compositions for inhibiting expression of angiopoietin-like 3 (ANGPTL3), and methods of use” (Arrowhead Pharmaceuticals, Inc., priority 2017, dated 2026).
# In the oligonucleotide strings, read from the 5' end, every base follows the letter of its sugar. An asterisk marks phosphorothioate; unmarked linkages are phosphodiester. Other units and linkages are bracketed, terminal groups are in braces. A string of capitals states the bases alone. {NAG37} = tridentate N-acetyl-galactosamine targeting ligand, structure (NAG37)s; [invAb] = inverted abasic unit; m = 2'-O-methyl; f = 2'-fluoro
# What was measured:
# ANGPTL3 gene [1] = experiment: Example 6: serum HDL in mice; type: in vivo, C57bl/6 mice
# Description: (§1) To assess the in vivo activity of additional ANGPTL3 RNAi agents that are designed to target position 304 on the ANGPTL3 gene, six- to eight-week-old female C57bl/6 mice were used. Pre-dose serum samples were taken at day −1 after a four hour fast. At day 1, each mouse was given a single subcutaneous administration of 200 μl containing 0.5 mg/kg (mpk) of an ANGPTL3 RNAi agent in D5W (dextrose in 5% water), or control (D5W) with no RNAi agent, according to the dosing groups recited in Table 25.
# (§2) Each of the RNAi agents included a modified sequence and an N-acetyl-galactosamine-containing targeting ligand conjugated to the 5′ terminal end of the sense strand. (See Tables 3, 4, and 5 for modified sequences and targeting ligand structures). The injections were performed between the skin and muscle (i.e. subcutaneous injections) into the loose skin over the neck and shoulder area. Three (3) mice in each group were tested (n=3). Serum was collected on days 8, 15, 22, 30, and on day 43 for certain groups (i.e., Groups 1, 2, 5, and 10 only). Mice were fasted for four hours prior to each collection. ANGPTL3 protein levels in serum were measured by ELISA assay (R&D Systems), according to the manufacturer's recommendations. Triglycerides, total cholesterol, high-density lipoprotein (HDL), and low-density lipoprotein (LDL) in serum were measured on a Cobas® Integra 400 (Roche Diagnostics), according to the manufacturer's recommendations.
# (§3) The ANGPTL3 protein levels, triglyceride levels, total cholesterol levels, HDL levels, and LDL levels for each animal were normalized. For normalization, the level of ANGPTL3 protein, triglyceride, HDL, and total cholesterol, respectively, for each animal at a time point, was divided by the pre-treatment level of expression in that animal (in this case at day −1) to determine the ratio of expression “normalized to pre-treatment.” Expression at a specific time point was then normalized to the D5W control group by dividing the “normalized to pre-treatment” ratio for an individual animal by the mean “normalized to pretreatment” ratio of all mice in the D5W control group.
# ANGPTL3 protein = experiment: Example 11: dose response, serum ANGPTL3 protein by ELISA in mice; type: in vivo, C57bl/6 mice
# Description: To assess the dose response of ANGPTL3 RNAi agent AD05488, six- to eight-week-old female C57bl/6 mice were used. Pre-dose serum samples were taken at day −1 after a four hour fast. At day 1, each mouse was given a single subcutaneous administration of 200 μl containing the respective mg/kg dose of an ANGPTL3 RNAi agent in D5W (dextrose in 5% water), or control (D5W) with no RNAi agent, according to the dosing groups recited in Table 53:
# as §2, with “The” for “Each of the”, “agent tested (AD05488)” for “agents”, “Four (4)” for “Three (3)”, “(n=4).” for “(n=3).”, “22,” for “22, 30,”, “29.” for “on day 43 for certain groups (i.e., Groups 1, 2, 5, and 10 only).”
# as §3
# ANGPTL3 gene [2] = experiment: Example 6: serum total cholesterol in mice; type: in vivo, C57bl/6 mice
# Description: as §1, §2, §3
# ANGPTL3 gene [3] = experiment: Example 13: serum total cholesterol in HFCS diet-fed Rhesus monkeys; type: in vivo; conditions: for Avg Chol (Cholesterol) Normalized to Pre-Treatment (Fasted): 4.0 mg/kg sc on day 1 and day 29
# Description: ANGPTL3 RNAi agent AD05488 was further evaluated in high-fructose corn syrup (HFCS) diet-fed Rhesus monkeys. Rhesus monkeys were placed on an HFCS diet 37 days prior to dosing. These animals were known to develop increased plasma triglycerides greater than 180 mg/dL on the HFCS diet. On day 1 and again on day 29, four (4) Rhesus monkeys were administered a subcutaneous injection containing 4.0 mg/kg of ANGPTL3 RNAi agent AD05488 formulated in saline (n=4). Two additional Rhesus monkeys were administered normal saline control.
# Fasted blood samples were drawn for analysis, and serum samples were analyzed on days-8 (predose), 8, 15, 21, 29, and 36. ANGPTL3 expression levels, triglycerides, total cholesterol, high-density lipoprotein (HDL), and low-density lipoprotein (LDL) in serum were measured on a Cobas® Integra 400 (Roche Diagnostics), according to the manufacturer's recommendations.
# The ANGPTL3 protein levels, triglyceride levels, total cholesterol levels, HDL levels, and LDL levels for each animal were normalized. For normalization, the level of ANGPTL3 protein, triglyceride, HDL, and total cholesterol, respectively, for each animal at a time point, was divided by the pre-treatment level of expression in that animal (in this case at day −8) to determine the ratio of expression “normalized to pre-treatment.”
# [4] = Day 8, 0.5 mg/kg single SC injection on day 1, n=3
# [5] = Day 15, 0.5 mg/kg single SC injection on day 1, n=3
# [6] = Day 22, 0.5 mg/kg single SC injection on day 1, n=3
# [7] = Day 30, 0.5 mg/kg single SC injection on day 1, n=3
# [8] = Day 43, 0.5 mg/kg single SC injection on day 1, n=3
substance,measurement,setting,value
"AD05488: RNAi agent duplex: antisense AM07235-AS, sense AM07234-SS (antisense mU*fA*mC*fUmGfAmUfCmAfAmAfUmAfUmGfUmUfGmAfG*mC; sense {NAG37}*[invAb]*mGmCmUmCmAmAmCmAfUfAfUmUmUmGmAmUmCmAmGmUmA*[invAb])","Avg HDL, normalized to pre-treatment and control",ANGPTL3 gene [1]; [4],0.783
same,"Avg HDL, normalized to pre-treatment and control",ANGPTL3 gene [1]; [5],0.763
same,"Avg HDL, normalized to pre-treatment and control",ANGPTL3 gene [1]; [6],0.793
same,"Avg HDL, normalized to pre-treatment and control",ANGPTL3 gene [1]; [7],0.956
same,"Avg HDL, normalized to pre-treatment and control",ANGPTL3 gene [1]; [8],1.088
same,Avg ANGPTL3 Protein Normalized to Pre-Treatment and Control,"ANGPTL3 protein; 0.05 mg/kg single sc day 1, Day 8",0.788
same,Avg ANGPTL3 Protein Normalized to Pre-Treatment and Control,"ANGPTL3 protein; 0.05 mg/kg single sc day 1, Day 15",0.929
same,Avg ANGPTL3 Protein Normalized to Pre-Treatment and Control,"ANGPTL3 protein; 0.05 mg/kg single sc day 1, Day 22",1.106
same,Avg ANGPTL3 Protein Normalized to Pre-Treatment and Control,"ANGPTL3 protein; 0.05 mg/kg single sc day 1, Day 29",0.990
same,Avg ANGPTL3 Protein Normalized to Pre-Treatment and Control,"ANGPTL3 protein; 0.1 mg/kg single sc day 1, Day 8",0.511
same,Avg ANGPTL3 Protein Normalized to Pre-Treatment and Control,"ANGPTL3 protein; 0.1 mg/kg single sc day 1, Day 15",0.757
same,Avg ANGPTL3 Protein Normalized to Pre-Treatment and Control,"ANGPTL3 protein; 0.1 mg/kg single sc day 1, Day 22",0.720
same,Avg ANGPTL3 Protein Normalized to Pre-Treatment and Control,"ANGPTL3 protein; 0.1 mg/kg single sc day 1, Day 29",0.734
same,Avg ANGPTL3 Protein Normalized to Pre-Treatment and Control,"ANGPTL3 protein; 0.5 mg/kg single sc day 1, Day 8",0.207
same,Avg ANGPTL3 Protein Normalized to Pre-Treatment and Control,"ANGPTL3 protein; 0.5 mg/kg single sc day 1, Day 15",0.261
same,Avg ANGPTL3 Protein Normalized to Pre-Treatment and Control,"ANGPTL3 protein; 0.5 mg/kg single sc day 1, Day 22",0.310
same,Avg ANGPTL3 Protein Normalized to Pre-Treatment and Control,"ANGPTL3 protein; 0.5 mg/kg single sc day 1, Day 29",0.349
same,Avg ANGPTL3 Protein Normalized to Pre-Treatment and Control,"ANGPTL3 protein; 1.0 mg/kg single sc day 1, Day 8",0.116
same,Avg ANGPTL3 Protein Normalized to Pre-Treatment and Control,"ANGPTL3 protein; 1.0 mg/kg single sc day 1, Day 15",0.141
same,Avg ANGPTL3 Protein Normalized to Pre-Treatment and Control,"ANGPTL3 protein; 1.0 mg/kg single sc day 1, Day 22",0.171
same,Avg ANGPTL3 Protein Normalized to Pre-Treatment and Control,"ANGPTL3 protein; 1.0 mg/kg single sc day 1, Day 29",0.199
same,Avg ANGPTL3 Protein Normalized to Pre-Treatment and Control,"ANGPTL3 protein; 2.5 mg/kg single sc day 1, Day 8",0.064
same,Avg ANGPTL3 Protein Normalized to Pre-Treatment and Control,"ANGPTL3 protein; 2.5 mg/kg single sc day 1, Day 15",0.047
same,Avg ANGPTL3 Protein Normalized to Pre-Treatment and Control,"ANGPTL3 protein; 2.5 mg/kg single sc day 1, Day 22",0.056
same,Avg ANGPTL3 Protein Normalized to Pre-Treatment and Control,"ANGPTL3 protein; 2.5 mg/kg single sc day 1, Day 29",0.063
same,Avg ANGPTL3 Protein Normalized to Pre-Treatment and Control,"ANGPTL3 protein; 5.0 mg/kg single sc day 1, Day 8",0.018
same,Avg ANGPTL3 Protein Normalized to Pre-Treatment and Control,"ANGPTL3 protein; 5.0 mg/kg single sc day 1, Day 15",0.019
same,Avg ANGPTL3 Protein Normalized to Pre-Treatment and Control,"ANGPTL3 protein; 5.0 mg/kg single sc day 1, Day 22",0.029
same,Avg ANGPTL3 Protein Normalized to Pre-Treatment and Control,"ANGPTL3 protein; 5.0 mg/kg single sc day 1, Day 29",0.031
same,reduction in ANGPTL3 protein,"ANGPTL3 protein; dose response, single subcutaneous dose, C57bl/6 mice",reduction
same,"Avg Chol (total cholesterol), normalized to pre-treatment and control",ANGPTL3 gene [2]; [4],0.782
same,"Avg Chol (total cholesterol), normalized to pre-treatment and control",ANGPTL3 gene [2]; [5],0.768
same,"Avg Chol (total cholesterol), normalized to pre-treatment and control",ANGPTL3 gene [2]; [6],0.801
same,"Avg Chol (total cholesterol), normalized to pre-treatment and control",ANGPTL3 gene [2]; [7],0.961
same,"Avg Chol (total cholesterol), normalized to pre-treatment and control",ANGPTL3 gene [2]; [8],1.037
same,reductions in total cholesterol levels,"ANGPTL3 gene [3]; 4.0 mg/kg on days 1 and 29, HFCS diet-fed Rhesus monkeys",reductions
same,Avg Chol (Cholesterol) Normalized to Pre-Treatment (Fasted),ANGPTL3 gene [3]; Day 8,0.734
same,Avg Chol (Cholesterol) Normalized to Pre-Treatment (Fasted),ANGPTL3 gene [3]; Day 15,0.641
same,Avg Chol (Cholesterol) Normalized to Pre-Treatment (Fasted),ANGPTL3 gene [3]; Day 21,0.579
same,Avg Chol (Cholesterol) Normalized to Pre-Treatment (Fasted),ANGPTL3 gene [3]; Day 29,0.549
same,Avg Chol (Cholesterol) Normalized to Pre-Treatment (Fasted),ANGPTL3 gene [3]; Day 36,0.459
